Literature values, collected in US8329742B2, “Macrocyclic compounds useful as pharmaceuticals” (EISAI Co., Ltd., priority 2002, dated 2012).

Legend:
Map/Erk kinase (MEK) = Map/Erk kinase (MEK) (Homo sapiens, UniProt Q02750)
[1] = susceptible to enone isomerization in mouse and human plasma

Map/Erk kinase (MEK), sequence (Q02750 whole entry): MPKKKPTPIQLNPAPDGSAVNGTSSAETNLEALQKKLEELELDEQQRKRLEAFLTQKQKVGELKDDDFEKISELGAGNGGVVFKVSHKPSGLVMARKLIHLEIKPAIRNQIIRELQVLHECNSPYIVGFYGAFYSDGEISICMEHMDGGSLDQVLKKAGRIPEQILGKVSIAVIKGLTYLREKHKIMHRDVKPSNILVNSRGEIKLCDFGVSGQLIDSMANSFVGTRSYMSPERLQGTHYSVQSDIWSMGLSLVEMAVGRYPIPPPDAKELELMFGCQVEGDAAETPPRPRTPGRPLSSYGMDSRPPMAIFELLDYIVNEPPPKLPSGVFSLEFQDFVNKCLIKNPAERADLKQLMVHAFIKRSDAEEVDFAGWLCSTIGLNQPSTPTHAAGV

- inhibition of Map/Erk kinase (MEK) (Map/Erk kinase (MEK)): inhibit
- biological stability [1]: biologically unstable
SMILES: COc1cc(O)c2c(c1)/C=C/C[C@H](O)[C@H](O)C(=O)/C=C\C[C@H](C)OC2=O [Compound F152]
